Reference: patent US10435361B2, “Kinase inhibitors” (Topivert Pharma Limited, priority 2013, dated 2019)

System: PBMCs
Experiment: LPS-induced TNFα/IL-8 release in PBMC cells
Assay type: cell-based
Settings: Homo sapiens, assay (b), read-out: IC50 Values for Inhibition of Cytokine Release PBMCs IL-8
Procedure: Peripheral blood mononuclear cells (PBMCs) from healthy subjects are separated from whole blood using a density gradient (Lymphoprep, Axis-Shield Healthcare). The PBMCs are seeded in 96 well plates and treated with compounds at the desired concentration for 2 hours before addition of 1 ng/mL LPS (Escherichia Coli 0111:B4 from Sigma Aldrich) for 24 hours under normal tissue culture conditions (37° C., 5% CO2). The supernatant is harvested for determination of IL-8 and TNFα concentrations by sandwich ELISA (Duo-set, R&D systems) and read on the fluorescence microplate reader (Varioskan® Flash, ThermoFisher Scientific).

Row | Structure (SMILES) | IC50
1 | COc1cc(Nc2cc(Oc3ccc(NC(=O)Nc4cc(C(C)(C)C)cc(NS(C)(=O)=O)c4OC)c4ccccc34)ccn2)cc(C(=O)NCCN2CCCC2)c1 [83(d), 3-((4-((4-(3-(5-(tert-butyl)-2-methoxy-3-(methylsulfonamido)phenyl)ureido)naphthalen-1-yl)oxy)pyridin-2-yl)amino)-5-methoxy-N-(2-(pyrrolidin-1-yl)ethyl)benzamide] | 12.1 nM
2 | COc1cc(Nc2cc(Oc3ccc(NC(=O)Nc4cc(C(C)(C)C)cc(NS(C)(=O)=O)c4OC)c4ccccc34)ccn2)cc(C(=O)NCCN2CCCCC2)c1 [83(e), 3-((4-((4-(3-(5-(tert-butyl)-2-methoxy-3-(methylsulfonamido)phenyl)ureido)naphthalen-1-yl)oxy)pyridin-2-yl)amino)-5-methoxy-N-(2-(piperidin-1-yl)ethyl)benzamide] | 8 nM
3 | COc1c(NC(=O)Nc2ccc(Oc3ccnc(Nc4ccccc4)c3)c3ccccc23)cc(C(C)(C)C)cc1NS(=O)(=O)N1CCOCC1 [83(f), N-(5-(tert-butyl)-2-methoxy-3-(3-(4-((2-(phenylamino)pyridin-4-yl)oxy)naphthalen-1-yl)ureido)phenyl)morpholine-4-sulfonamide] | 13.1 nM
4 | COCCOCCOCCOc1cc(Nc2cc(Oc3ccc(NC(=O)Nc4cc(C(C)(C)C)cc(C(=O)NCCN)c4OC)c4ccccc34)ccn2)cc(OC)c1 [83(g), N-(2-aminoethyl)-5-(tert-butyl)-2-methoxy-3-(3-(4-((2-((3-methoxy-5-(2-(2-(2-methoxy-ethoxy)ethoxy)ethoxy)phenyl)amino)pyridin-4-yl)oxy)naphthalen-1-yl)ureido)benzamide] | 7.3 nM
5 | COc1c(NC(=O)Nc2ccc(Oc3ccnc(Nc4ccccc4)c3)c3ccccc23)cc(C(C)(C)C)cc1C(=O)NC1CCOCC1 [84(a), 3-[[4-[(2-Anilino-4-pyridyl)oxy]-1-naphthyl]carbamoylamino]-5-tert-butyl-2-methoxy-N-tetrahydropyran-4-yl-benzamide] | 12.4 nM
6 | COc1c(NC(=O)Nc2ccc(Oc3ccnc(Nc4ccccc4)c3)c3ccccc23)cc(C(C)(C)C)cc1C(=O)NC1CCN(C)CC1 [84(b), 3-[[4-[(2-Anilino-4-pyridyl)oxy]-1-naphthyl]carbamoylamino]-5-tert-butyl-2-methoxy-N-(1-methyl-4-piperidyl)benzamide] | 9.1 nM
7 | COc1c(NC(=O)Nc2ccc(Oc3ccnc(Nc4ccccc4)c3)c3ccccc23)cc(C(C)(C)C)cc1C(=O)N[C@@H]1CCOC1 [84(c), 3-[[4-[(2-Anilino-4-pyridyl)oxy]-1-naphthyl]carbamoylamino]-5-tert-butyl-2-methoxy-N-[(3R)-tetrahydrofuran-3-yl]benzamide] | 21.8 nM
8 | COc1cc(Nc2cc(Oc3ccc(NC(=O)Nc4cc(C(C)(C)C)cc(NS(C)(=O)=O)c4OC)c4ccccc34)ccn2)cc(OCCOCCOCCO)c1 [84(e), 1-[5-tert-Butyl-3-(methanesulfonamido)-2-methoxy-phenyl]-3-[4-[[2-[3-[2-[2-(2-hydroxyethoxy)ethoxy]ethoxy]-5-methoxy-anilino]-4-pyridyl]oxy]-1-naphthyl]urea] | 1.3 nM
9 | COc1cc(CO)cc(Nc2cc(Oc3ccc(NC(=O)Nc4cc(C(C)(C)C)cc(NS(C)(=O)=O)c4OC)c4ccccc34)ccn2)c1 [84(f), 1-[5-tert-Butyl-3-(methanesulfonamido)-2-methoxyphenyl]-3-[4-[[2-[3-(hydroxymethyl)-5-methoxyanilino]-4-pyridyl]oxy]-naphthyl]urea] | 13.5 nM
10 | C#Cc1cc(Nc2cc(Oc3ccc(NC(=O)Nc4cc(C(C)(C)C)cc(NS(C)(=O)=O)c4OC)c4ccccc34)ccn2)cc(C(=O)NCCN2CCN(C)CC2)c1 [85(c), 3-[[4-[[4-[[5-tert-Butyl-3-(methanesulfonamido)-2-methoxyphenyl]-carbamoylaminol]-1-naphthyl]oxy]-2-pyridyl]amino]-5-ethynyl-N-[2-(4-methylpiperazin-1-yl)ethyl]benzamide] | 4.6 nM
11 | COc1cc(Nc2nccc(Oc3ccc(NC(=O)Nc4cc(C(C)(C)C)cc(NS(C)(=O)=O)c4OC)c4ccccc34)n2)cc(C(=O)NCCN2CCN(C)CC2)c1 [85(e), 3-[[4-[[4-[[5-tert-Butyl-3-(methanesulfonamido)-2-methoxyphenyl]-carbamoylamino]-1-naphthyl]oxy]pyrimidin-2-yl]amino]-5-methoxy-N-[2-(4-methylpiperazin-1-yl)ethyl]benzamide] | 1.7 nM
12 | COc1cc(Nc2nccc(Oc3ccc(NC(=O)Nc4cc(C(C)(C)C)cc(NS(C)(=O)=O)c4OC)c4ccccc34)n2)cc(C(=O)NCCCN2CCOCC2)c1 [85(f), 3-[[4-[[4-[[5-tert-Butyl-3-(methanesulfonamido)-2-methoxyphenyl]-carbamoylamino]-1-naphthyl]oxy]pyrimidin-2-yl]amino]-5-methoxy-N-(3-morpholinopropyl)-benzamide] | 0.7 nM
13 | C#Cc1cc(Nc2nccc(Oc3ccc(NC(=O)Nc4cc(C(C)(C)C)cc(C(N)=O)c4OC)c4ccccc34)n2)cc(C(=O)NCCN2CCOCC2)c1 [85(g), 5-tert-Butyl-3-[[4-[2-[3-ethynyl-5-(2-morpholinoethylcarbamoyl)anilino]-pyrimidin-4-yl]oxy-1-naphthyl]carbamoylamino]-2-methoxy-benzamide] | 1 nM
14 | COc1cc(Nc2cc(Oc3ccc(NC(=O)Nc4cc(C(C)(C)C)cc(NS(C)(=O)=O)c4OC)c4ccccc34)ccn2)cc(C(=O)NCCN2CCSCC2)c1 [85(i), 3-[[4-[[4-[[5-tert-Butyl-3-(methanesulfonamido)-2-methoxyphenyl]-carbamoylamino]-1-naphthyl]oxy]-2-pyridyl]amino]-5-methoxy-N-(2-thiomorpholinoethyl)-benzamide] | 1.5 nM
15 | COc1cc(Nc2cc(Oc3ccc(NC(=O)Nc4cc(C(C)(C)C)cc(NS(C)(=O)=O)c4OC)c4ccccc34)ccn2)cc(C(=O)NCCN2CC[S+]([O-])CC2)c1 [85(j), 3-[[4-[[4-[[5-tert-Butyl-3-(methanesulfonamido)-2-methoxyphenyl]-carbamoylamino]-1-naphthyl]oxy]-2-pyridyl]amino]-5-methoxy-N-[2-(1-oxo-1,4-thiazinan-4-yl)ethyl]benzamide] | 2.1 nM
16 | COc1cc(Nc2cc(Oc3ccc(NC(=O)Nc4cc(C(C)(C)C)cc(NS(C)(=O)=O)c4OC)c4ccccc34)ccn2)cc(C(=O)NCCN2CCOCC2(C)C)c1 [85(l), 3-[[4-[[4-[[5-tert-Butyl-3-(methanesulfonamido)-2-methoxyphenyl]-carbamoylamino]-1-naphthyl]oxy]-2-pyridyl]amino]-N-[2-(3,3-dimethylmorpholin-4-yl)ethyl]-5-methoxybenzamide] | 2.8 nM
17 | COc1cc(Nc2cc(Oc3ccc(NC(=O)Nc4cc(C(C)(C)C)cc(NS(C)(=O)=O)c4OC)c4ccccc34)ccn2)cc(C(=O)NCCN2CCCN(C)CC2)c1 [85(p), 3-[[4-[[4-[[5-tert-Butyl-3-(methanesulfonamido)-2-methoxyphenyl]-carbamoylamino]-1-naphthyl]oxy]-2-pyridyl]amino]-5-methoxy-N-[2-(4-methyl-1,4-diazepan-1-yl)ethyl]benzamide] | 7.1 nM
18 | COc1cc(Nc2cc(Oc3ccc(NC(=O)Nc4cc(C(C)(C)C)cc(NS(C)(=O)=O)c4OC)c4ccccc34)ccn2)cc(C(=O)NCCN2CCNCC2)c1 [85(q), 3-[[4-[[4-[[5-tert-Butyl-3-(methanesulfonamido)-2-methoxyphenyl]-carbamoylamino]-1-naphthyl]oxy]-2-pyridyl]amino]-5-methoxy-N-(2-piperazin-1-ylethyl)benzamide] | 6.1 nM
19 | COc1cc(Nc2cc(Oc3ccc(NC(=O)Nc4cc(C(C)(C)C)cc(NS(C)(=O)=O)c4OC)c4ccccc34)ccn2)cc(C(=O)NCCOCCOCCO)c1 [85(r), 3-[[4-[[4-[[5-tert-Butyl-3-(methanesulfonamido)-2-methoxyphenyl]-carbamoylamino]-1-naphthyl]oxy]-2-pyridyl]amino]-N-[2-[2-(2-hydroxyethoxy)ethoxy]-ethyl]-5-methoxy-benzamide] | 0.6 nM
20 | COCCOCCOCCOCCNC(=O)c1cc(Nc2cc(Oc3ccc(NC(=O)Nc4cc(C(C)(C)C)cc(NS(C)(=O)=O)c4OC)c4ccccc34)ccn2)cc(OC)c1 [85(v), 3-[[4-[[4-[[5-tert-Butyl-3-(methanesulfonamido)-2-methoxyphenyl]-carbamoylamino]-1-naphthyl]oxy]-2-pyridyl]amino]-5-methoxy-N-[2-[2-[2-(2-methoxyethoxy)ethoxy]ethoxy]-ethyl]benzamide] | 0.4 nM
21 | COc1cc(Nc2cc(Oc3ccc(NC(=O)Nc4cc(C(C)(C)C)cc(NS(C)(=O)=O)c4OC)c4ccccc34)ccn2)cc(C(=O)NCCN2CCC(O)CC2)c1 [85(w), 3-[[4-[[4-[[5-tert-Butyl-3-(methanesulfonamido)-2-methoxyphenyl]-carbamoylamino]-1-naphthyl]oxy]-2-pyridyl]amino]-N-[2-(4-hydroxy-1-piperidyl)ethyl]-5-methoxybenzamide] | 2.9 nM
22 | COCCOCCOCC[S+]([O-])c1cc(Nc2cc(Oc3ccc(NC(=O)Nc4cc(C(C)(C)C)cc(NS(C)(=O)=O)c4OC)c4ccccc34)ccn2)cc(OC)c1 (centres unmarked) [85(x), 1-[5-tert-Butyl-3-(methanesulfonamido)-2-methoxyphenyl]-3-[4-[2-[3-methoxy-5-[2-[2-(2-methoxyethoxy)ethoxy]ethylsulfinyl]anilino]pyridin-4-yl]oxy-1-naphthyl]urea] | 0.9 nM
23 | COCCOCCOCCNC(=O)c1cc(Nc2nccc(Oc3ccc(NC(=O)Nc4cc(C(C)(C)C)cc(NS(C)(=O)=O)c4OC)c4ccccc34)n2)cc(OC)c1 [Example 7, 3-((4-((4-(3-(5-(tert-Butyl)-2-methoxy-3-(methylsulfonamido)phenyl)ureido)naphthalen-1-yl)oxy)pyrimidin-2-yl)amino)-5-methoxy-N-(2-(2-(2-methoxyethoxy)ethoxy)ethyl)-benzamide] | 1.1 nM
